Experimental data from patent publication US12097213B2, “Sequential treatment of cancers using 6-thio-dG, checkpoint inhibitors and radiation therapy” (The Board of Regents of the University of Texas System, priority 2020, dated 2024).

Columns and labels:
MC38 cells = assay: Colony formation assay; format: cell-based, mouse; details: 0.5 μM 6-thio-dG every three days for 13 days
Experimental: Colony formation assay. MC38 cells were seeded in three different concentrations on six well plates (1000-4000 cells/well) and treated with various drug concentrations every 3-4 days. Following 13 days treatment, cells were fixed and stained with 6% glutaraldehyde (Fisher Scientific) plus 0.5% crystal violet (Sigma) solution. After washing with tap water, cells were air-dried and images captured using a G-BOX (Syngene, model: G-BOX F3).

[1] = test system: bone marrow derived DCs (BMDCs); assay: In vitro co-culture of BMDC with 6-thio-dG pretreated tumor cells and T cells; format: cell-based, mouse
Experimental: In vitro co-culture of bone marrow dendritic cells (BMDC) and T cells. Single-cell suspensions of bone marrow (BM) cells were collected from tibias and femurs of C57BL/6 mice. The BM cells were placed in 10 cm dish and cultured with complete RPMI 1640 medium containing 20 ng/mL recombinant mouse GM-CSF (BioLegend). Fresh medium with was added into the culture on day 3 and day 6. The BMDCs were harvested Day 7. CD8+ T cells were isolated from lymph nodes and spleens of OT-1 transgenic mice with a negative CD8+ T cell isolation kit (Stemcell). MC38-OVA cells pretreated with 200 nM 6-thio-dG for 4 hrs. Then the drug was washed out, tumor cells were continued to culture for 72 hrs and were harvested on the same day as BMDC harvest. Then MC38-OVA cells were co-cultured with BMDC for overnight. Supernatant was collected for IFN-β ELISA test (PBL). BMDCs were sorted with CD11c+ positive selection kit (Stemcell) and co-cultured with OT-1 CD8+ T cells for 48 hrs. Supernatants were collected and IFN-γ was measured by cytometric bead array assay (BD Biosciences).
Quantitative real-time PCR. Real-time PCR was performed with SsoAdvanced™ Universal SYBR® Green Supermix (Bio-Rad) according to the manufacturer's instructions with different primer sets (human MT-CO1, forward primer 5′-[…]-3′ (SEQ ID NO: 3), reverse primer 5′-CGGGGCATTCCG GATAGGCC-3′ (SEQ ID NO: 4); human18s rRNA, forward primer 5′-[…]-3′ (SEQ ID NO: 5), reverse primer 5′-[…]-3′ (SEQ ID NO: 6); mouse IFN-β, forward primer 5′-ATGAGTGGTGGTTGCAGGC-3′ (SEQ ID NO: 7), reverse primer 5′-[…]-3′ (SEQ ID NO: 8); mouse GAPDH, forward primer 5′-CATCAAGAA GGTGGTGAAGC-3′ (SEQ ID NO: 9), reverse primer 5′-[…]-3′) (SEQ ID NO: 10) mouse GAPDH was used as the internal control. 2^−ΔΔCt method was used to calculate relative expression changes.

Nc1nc2c(ncn2[C@H]2C[C@H](O)[C@@H](CO)O2)c(=S)[nH]1 [6-thio-dG, 6-thio-2′-deoxyguanosine]
cells forming colonies (MC38 cells): less than 50%
IFN-γ production by OT-1 CD8+ T cells (cross-priming capacity of DCs) ([1]; MC38-OVA pretreated with 200 nM 6-thio-dG, DC/T cell co-culture 48 hrs, CBA): significant increase
IFN-β in DCs, WT vs Tmem173KO ([1]; MC38 pretreated with 200 nM 6-thio-dG, qPCR): induced IFN-β production in DCs in a STING-dependent manner
IFN-β production by DCs ([1]; co-culture with tumor cells pretreated with 200 nM 6-thio-dG, ELISA): significantly increased
